Results: ChEMBL document CHEMBL3882388, “Pharmaceutical Compositions Comprising Beta-Lactam Antibiotic, Sulbactam and Beta-Lactamase Inhibitor” (2014)
Values after ≈ are worked out from the molar mass of the structure shown.

Experiments:
[1] = target: Beta-lactamase (Acinetobacter baumannii) (UniProt Q8RLA6); details: NCTC 13304
[2] = target: Beta-lactamase (Acinetobacter baumannii) (UniProt Q8RLA6); details: S-15
[3] = target: Beta-lactamase (Acinetobacter baumannii) (UniProt Q8RLA6); assay: Inhibition of beta-lactamase in extended-spectrum b-lactamase producing Acinetobacter baumannii S-3 assessed as potentiation of cefepime-induced antibacterial activity by measuring cefepime MIC at 4 to 8 ug/ml incubated for 16 to 20 hrs by CLSI method
[4] = target: Beta-lactamase (Acinetobacter baumannii) (UniProt Q8RLA6); details: NCTC 13301
[5] = target: Beta-lactamase (Acinetobacter baumannii) (UniProt Q8RLA6); details: S-10
[6] = target: Beta-lactamase (Acinetobacter baumannii) (UniProt Q8RLA6); details: S-8
[7] = target: Beta-lactamase (Acinetobacter baumannii) (UniProt Q8RLA6); details: S-4
[8] = target: Beta-lactamase (Acinetobacter baumannii) (UniProt Q8RLA6); details: S-8; remark: listed apart in the source
[9] = target: Beta-lactamase (Acinetobacter baumannii) (UniProt Q8RLA6); details: S-10; remark: listed apart in the source
[10] = target: Beta-lactamase (Acinetobacter baumannii) (UniProt Q8RLA6); details: S-10; remark: listed apart in the source
Acinetobacter baumannii [11] = assay: Antibacterial activity against extended-spectrum b-lactamase producing Acinetobacter baumannii S-8 incubated for 16 to 20 hrs by CLSI method; type: functional
[12] = target: Beta-lactamase (Acinetobacter baumannii) (UniProt Q8RLA6); details: NCTC 13305
[13] = target: Beta-lactamase (Acinetobacter baumannii) (UniProt Q8RLA6); details: NCTC 13305; remark: listed apart in the source
[14] = target: Beta-lactamase (Acinetobacter baumannii) (UniProt Q8RLA6); details: S-4; remark: listed apart in the source
[15] = target: Beta-lactamase (Acinetobacter baumannii) (UniProt Q8RLA6); details: NCTC 13301; remark: listed apart in the source
[16] = target: Beta-lactamase (Acinetobacter baumannii) (UniProt Q8RLA6); assay: Inhibition of beta-lactamase in extended-spectrum b-lactamase producing Acinetobacter baumannii S-4 assessed as potentiation of cefepime-induced antibacterial activity by measuring cefepime MIC at 4 to 8 ug/ml incubated for 16 to 20 hrs by CLSI method
[17] = target: Beta-lactamase (Acinetobacter baumannii) (UniProt Q8RLA6); details: NCTC 13304; remark: listed apart in the source
[18] = target: Beta-lactamase (Acinetobacter baumannii) (UniProt Q8RLA6); details: NCTC 13304; remark: listed apart in the source
[19] = target: Beta-lactamase (Acinetobacter baumannii) (UniProt Q8RLA6); details: NCTC 13301; remark: listed apart in the source
[20] = target: Beta-lactamase (Acinetobacter baumannii) (UniProt Q8RLA6); details: NCTC 13301; remark: listed apart in the source
[21] = target: Beta-lactamase (Acinetobacter baumannii) (UniProt Q8RLA6); details: NCTC 13305; remark: listed apart in the source
[22] = target: Beta-lactamase (Acinetobacter baumannii) (UniProt Q8RLA6); details: NCTC 13304; remark: listed apart in the source
[23] = target: Beta-lactamase (Acinetobacter baumannii) (UniProt Q8RLA6); details: NCTC 13301; remark: listed apart in the source
[24] = target: Beta-lactamase (Acinetobacter baumannii) (UniProt Q8RLA6); assay: Inhibition of beta-lactamase in extended-spectrum b-lactamase producing Acinetobacter baumannii NCTC 13301 assessed as potentiation of cefepime-induced antibacterial activity by measuring cefepime MIC at 4 to 8 ug/ml incubated for 16 to 20 hrs by CLSI method
[25] = target: Beta-lactamase (Acinetobacter baumannii) (UniProt Q8RLA6); details: NCTC 13304; remark: listed apart in the source
[26] = target: Beta-lactamase (Acinetobacter baumannii) (UniProt Q8RLA6); details: NCTC 13304; remark: listed apart in the source
[27] = target: Beta-lactamase (Acinetobacter baumannii) (UniProt Q8RLA6); details: S-4; remark: listed apart in the source
Acinetobacter baumannii [28] = assay: Antibacterial activity against extended-spectrum b-lactamase producing Acinetobacter baumannii S-4 incubated for 16 to 20 hrs by CLSI method; type: functional
[29] = target: Beta-lactamase (Acinetobacter baumannii) (UniProt Q8RLA6); details: NCTC 13305; remark: listed apart in the source
[30] = target: Beta-lactamase (Acinetobacter baumannii) (UniProt Q8RLA6); details: NCTC 13301; remark: listed apart in the source
[31] = target: Beta-lactamase (Acinetobacter baumannii) (UniProt Q8RLA6); details: NCTC 13301; remark: listed apart in the source
[32] = target: Beta-lactamase (Acinetobacter baumannii) (UniProt Q8RLA6); details: S-3
Acinetobacter baumannii [33] = assay: Antibacterial activity against extended-spectrum b-lactamase producing Acinetobacter baumannii S-10 incubated for 16 to 20 hrs by CLSI method; type: functional
[34] = target: Beta-lactamase (Acinetobacter baumannii) (UniProt Q8RLA6); details: S-3; remark: listed apart in the source
[35] = target: Beta-lactamase (Acinetobacter baumannii) (UniProt Q8RLA6); details: NCTC 13305; remark: listed apart in the source
[36] = target: Beta-lactamase (Acinetobacter baumannii) (UniProt Q8RLA6); details: S-10; remark: listed apart in the source
[37] = target: Beta-lactamase (Acinetobacter baumannii) (UniProt Q8RLA6); details: S-4; remark: listed apart in the source
[38] = target: Beta-lactamase (Acinetobacter baumannii) (UniProt Q8RLA6); details: S-15; remark: listed apart in the source
[39] = target: Beta-lactamase (Acinetobacter baumannii) (UniProt Q8RLA6); details: S-8; remark: listed apart in the source
[40] = target: Beta-lactamase (Acinetobacter baumannii) (UniProt Q8RLA6); details: NCTC 13305; remark: listed apart in the source
[41] = target: Beta-lactamase (Acinetobacter baumannii) (UniProt Q8RLA6); details: S-3; remark: listed apart in the source
[42] = target: Beta-lactamase (Acinetobacter baumannii) (UniProt Q8RLA6); details: S-8; remark: listed apart in the source
[43] = target: Beta-lactamase (Acinetobacter baumannii) (UniProt Q8RLA6); details: S-3; remark: listed apart in the source
Acinetobacter baumannii [44] = assay: Antibacterial activity against extended-spectrum b-lactamase producing Acinetobacter baumannii NCTC 13305 incubated for 16 to 20 hrs by CLSI method; type: functional
[45] = target: Beta-lactamase (Acinetobacter baumannii) (UniProt Q8RLA6); details: S-15; remark: listed apart in the source
[46] = target: Beta-lactamase (Acinetobacter baumannii) (UniProt Q8RLA6); details: S-15; remark: listed apart in the source
[47] = target: Beta-lactamase (Acinetobacter baumannii) (UniProt Q8RLA6); details: NCTC 13304; remark: listed apart in the source
[48] = target: Beta-lactamase (Acinetobacter baumannii) (UniProt Q8RLA6); assay: Inhibition of beta-lactamase in extended-spectrum b-lactamase producing Acinetobacter baumannii S-4 assessed as potentiation of cefpirome-induced antibacterial activity by measuring cefpirome MIC at 4 to 8 ug/ml incubated for 16 to 20 hrs by CLSI method
[49] = target: Beta-lactamase (Acinetobacter baumannii) (UniProt Q8RLA6); details: S-10; remark: listed apart in the source
[50] = target: Beta-lactamase (Acinetobacter baumannii) (UniProt Q8RLA6); details: S-8; remark: listed apart in the source
Acinetobacter baumannii [51] = assay: Antibacterial activity against extended-spectrum b-lactamase producing Acinetobacter baumannii S-15 incubated for 16 to 20 hrs by CLSI method; type: functional
[52] = target: Beta-lactamase (Acinetobacter baumannii) (UniProt Q8RLA6); details: S-15; remark: listed apart in the source
[53] = target: Beta-lactamase (Acinetobacter baumannii) (UniProt Q8RLA6); details: NCTC 13305; remark: listed apart in the source
[54] = target: Beta-lactamase (Acinetobacter baumannii) (UniProt Q8RLA6); details: NCTC 13304; remark: listed apart in the source
[55] = target: Beta-lactamase (Acinetobacter baumannii) (UniProt Q8RLA6); details: S-3; remark: listed apart in the source
[56] = target: Beta-lactamase (Acinetobacter baumannii) (UniProt Q8RLA6); details: S-10; remark: listed apart in the source
[57] = target: Beta-lactamase (Acinetobacter baumannii) (UniProt Q8RLA6); details: S-15; remark: listed apart in the source
[58] = target: Beta-lactamase (Acinetobacter baumannii) (UniProt Q8RLA6); details: NCTC 13305; remark: listed apart in the source
[59] = target: Beta-lactamase (Acinetobacter baumannii) (UniProt Q8RLA6); details: S-3; remark: listed apart in the source
[60] = target: Beta-lactamase (Acinetobacter baumannii) (UniProt Q8RLA6); details: S-8; remark: listed apart in the source
[61] = target: Beta-lactamase (Acinetobacter baumannii) (UniProt Q8RLA6); details: S-4; remark: listed apart in the source
Acinetobacter baumannii [62] = assay: Antibacterial activity against extended-spectrum b-lactamase producing Acinetobacter baumannii S-3 incubated for 16 to 20 hrs by CLSI method; type: functional
Acinetobacter baumannii [63] = assay: Antibacterial activity against extended-spectrum b-lactamase producing Acinetobacter baumannii NCTC 13304 incubated for 16 to 20 hrs by CLSI method; type: functional
Acinetobacter baumannii [64] = assay: Antibacterial activity against extended-spectrum b-lactamase producing Acinetobacter baumannii NCTC 13301 incubated for 16 to 20 hrs by CLSI method; type: functional
[65] = target: Beta-lactamase (Acinetobacter baumannii) (UniProt Q8RLA6); assay: Inhibition of beta-lactamase in extended-spectrum b-lactamase producing Acinetobacter baumannii NCTC 13301 assessed as potentiation of cefpirome-induced antibacterial activity by measuring cefpirome MIC at 4 to 8 ug/ml incubated for 16 to 20 hrs by CLSI method
[66] = target: Beta-lactamase (Acinetobacter baumannii) (UniProt Q8RLA6); details: NCTC 13301; remark: listed apart in the source
[67] = target: Beta-lactamase (Acinetobacter baumannii) (UniProt Q8RLA6); assay: Inhibition of beta-lactamase in extended-spectrum b-lactamase producing Acinetobacter baumannii S-3 assessed as potentiation of cefpirome-induced antibacterial activity by measuring cefpirome MIC at 4 to 8 ug/ml incubated for 16 to 20 hrs by CLSI method
[68] = target: Beta-lactamase (Acinetobacter baumannii) (UniProt Q8RLA6); details: S-4; remark: listed apart in the source

Chain of Beta-lactamase (Acinetobacter baumannii) (Q8RLA6 as listed by the source): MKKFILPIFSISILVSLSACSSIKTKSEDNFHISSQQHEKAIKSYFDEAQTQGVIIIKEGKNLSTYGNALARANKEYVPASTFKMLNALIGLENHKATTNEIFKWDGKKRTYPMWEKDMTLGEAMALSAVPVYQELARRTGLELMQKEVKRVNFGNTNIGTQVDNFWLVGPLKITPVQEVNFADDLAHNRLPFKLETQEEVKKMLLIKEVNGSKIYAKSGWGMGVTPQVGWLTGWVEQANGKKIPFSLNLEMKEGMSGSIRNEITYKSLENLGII

NC(=O)[C@@H]1CC[C@@H]2CN1C(=O)N2OS(=O)(=O)O
MIC [1]: < 0.06 µg/mL
MIC [2]: 0.12 µg/mL (≈ 0.452 µM)
MIC [3]: 32 µg/mL
MIC [4]: < 0.06 µg/mL
MIC [5]: < 0.03 µg/mL
MIC [6]: 0.5 µg/mL (≈ 1.89 µM)
MIC [7]: 1 µg/mL (≈ 3.77 µM)
MIC [8]: 0.5 µg/mL (≈ 1.89 µM)
MIC [9]: 8 µg/mL (≈ 30.2 µM)
MIC [10]: 8 µg/mL (≈ 30.2 µM)
MIC (Acinetobacter baumannii [11]): > 64 µg/mL
MIC [12]: < 0.06 µg/mL
MIC [13]: < 0.06 µg/mL
MIC [14]: 0.5 µg/mL (≈ 1.89 µM)
MIC [15]: < 0.06 µg/mL
MIC [16]: 32 µg/mL
MIC [17]: < 0.06 µg/mL
MIC [18]: < 0.06 µg/mL
MIC [19]: < 0.06 µg/mL
MIC [20]: < 0.06 µg/mL
MIC [21]: < 0.06 µg/mL
MIC [22]: < 0.06 µg/mL
MIC [23]: < 0.06 µg/mL
MIC [24]: > 32 µg/mL
MIC [25]: < 0.06 µg/mL
MIC [26]: < 0.06 µg/mL
MIC [27]: 0.5 µg/mL (≈ 1.89 µM)
MIC (Acinetobacter baumannii [28]): > 64 µg/mL
MIC [29]: < 0.06 µg/mL
MIC [30]: < 0.06 µg/mL
MIC [31]: < 0.06 µg/mL
MIC [32]: 0.5 µg/mL (≈ 1.89 µM)
MIC (Acinetobacter baumannii [33]): > 64 µg/mL
MIC [34]: 4 µg/mL (≈ 15.1 µM)
MIC [35]: < 0.06 µg/mL
MIC [36]: < 0.03 µg/mL
MIC [37]: 1 µg/mL (≈ 3.77 µM)
MIC [38]: 8 µg/mL (≈ 30.2 µM)
MIC [39]: 0.5 µg/mL (≈ 1.89 µM)
MIC [40]: < 0.06 µg/mL
MIC [41]: 4 µg/mL (≈ 15.1 µM)
MIC [42]: 0.5 µg/mL (≈ 1.89 µM)
MIC [43]: 0.5 µg/mL (≈ 1.89 µM)
MIC (Acinetobacter baumannii [44]): > 64 µg/mL
MIC [45]: 0.5 µg/mL (≈ 1.89 µM)
MIC [46]: 8 µg/mL (≈ 30.2 µM)
MIC [47]: < 0.06 µg/mL
MIC [48]: 32 µg/mL
MIC [49]: < 0.03 µg/mL
MIC [50]: 8 µg/mL (≈ 30.2 µM)
MIC (Acinetobacter baumannii [51]): > 64 µg/mL
MIC [52]: 0.12 µg/mL (≈ 0.452 µM)
MIC [53]: < 0.06 µg/mL
MIC [54]: < 0.06 µg/mL
MIC [55]: 1 µg/mL (≈ 3.77 µM)
MIC [56]: < 0.03 µg/mL
MIC [57]: 0.5 µg/mL (≈ 1.89 µM)
MIC [58]: < 0.06 µg/mL
MIC [59]: 1 µg/mL (≈ 3.77 µM)
MIC [60]: 8 µg/mL (≈ 30.2 µM)
MIC [61]: 4 µg/mL (≈ 15.1 µM)
MIC (Acinetobacter baumannii [62]): > 64 µg/mL
MIC (Acinetobacter baumannii [63]): > 64 µg/mL
MIC (Acinetobacter baumannii [64]): > 64 µg/mL
MIC [65]: > 32 µg/mL
MIC [66]: < 0.06 µg/mL
MIC [67]: 32 µg/mL
MIC [68]: 4 µg/mL (≈ 15.1 µM)
